In PMC10616469, “Pharmacokinetics and tissue distribution of four major bioactive components of Cynanchum auriculatum extract: a UPLC–MS/MS study in normal and functional dyspepsia rats” (Frontiers in Pharmacology, 2023):
Read-outs that look alike come from different tables or passages of the source.

How the values were obtained:
[1] = Tissue distribution study after oral administration of CA extract in normal and FD rats
Description: UPLC–MS/MS analysis was conducted using the ACQUITY UPLC system (Waters Corp., Milford, MA, United States) equipped with a Xevo–TQ mass spectrometer (Waters Corp., Milford, MA, United States) with an electrospray ionization (ESI) interface and triple quadrupole mass analyzer.
The ACQUITY UPLC® BEH C18 column (2.1 mm × 50 mm, 1.7 μm, Waters, United States) was used for separation and was maintained at 40°C. The mobile phase consisted of 0.1% formic acid in water (A) and 0.1% formic acid–acetonitrile (B) for PK study and 0.2% formic acid in water (A) and 0.2% formic acid–acetonitrile (B) for tissue distribution study. The mobile phase was eluted as a gradient, as follows: 0–0.5 min, 10% B; 0.5–3.0 min, 15% B; 3.0–3.2 min, 25% B; 3.2–4.0 min, 30% B; 4.0–4.5 min, 32% B; 4.5–6.0 min, 90% B; and 6.0 min, 10% B. The flow rate was set at 0.35 mL/min and the injection volume was 2 μL for the PK study and 1 μL for the tissue distribution study.
The four active components of CA were quantified using multiple reaction monitoring under negative ion mode. The following m/z transitions were chosen for quantification: baishouwu benzophenone 301.00→283.00, deacylmetaplexigenin 379.15→361.20, qingyangshengenin 499.20→137.00, syringic acid 197.20→181.95, and puerarin (internal standard, IS) 415.10→267.05. The collision energy was 15, 15, 35, 15, and 35 V, respectively ([Sun et al., 2022]). ESI mode was operated under the following conditions: capillary voltage, 1 kV; desolvation gas (N2), 1000 L/h; collision gas (Ar2), 150 L/h; desolvation temperature, 400°C; and source temperature, 120°C.
Additionally, stomach and small intestinal tissues were diluted three times to obtain a tissue homogenate. Then, 300 μL of this tissue homogenate was mixed with 30 μL 1% formic acid-water, 20 μL IS, and 1.2 mL acetonitrile. The mixture was then vortexed for 5 min, sonicated for 10 min, and then stored at −20°C for 30 min. Subsequently, the mixture was centrifuged at 14,000 rpm for 10 min. The supernatant obtained was then transferred to another tube and evaporated to dryness at 37°C under nitrogen. The dried residue was reconstituted with 200 μL of the 50% methanol–water, and the centrifugation process was repeated. The obtained supernatant was then used for further analysis.
SD rats were randomly divided into normal and FD groups (n = 30 each) and orally administered 10 mL/kg of CA extract solution. The rats were sacrificed at 10, 30 min, 1, 2, and 4 h after administration (6 rats per time point). Subsequently, their heart, liver, spleen, lung, kidney, brain, small intestine, and stomach were removed. The tissue samples were then washed in saline solution and wiped with filter paper. Subsequently, all tissues were stored at −80°C until analysis.

[2] = Stability of the four compounds in plasma samples (QC samples); details: n = 5
Description: In a 1.5 mL EP tube, 100 μL of plasma sample was mixed with 10 µL 1% formic acid–water, 10 μL IS (0.2011 μg/mL), and 400 μL acetonitrile. The mixture was then vortexed for 5 min, followed by sonication for 10 min at 40 kHz and centrifugation at 14,000 rpm for 10 min. The supernatant obtained was transferred to another tube and evaporated to dryness under a nitrogen vacuum at 37°C. The residue obtained was reconstituted with 150 μL of the initial mobile phase, and the centrifugation process was repeated. The supernatant thus obtained was then used for further analysis.
Similarly, QC samples of three concentrations (low, medium, and high) were prepared.
The specificity of the method was evaluated by comparing the retention times of analytes and IS in the blank matrix, blank matrix spiked with the four analytes and IS, and the samples after oral administration of CA extract. Calibration curves were constructed by comparing the ratio of peak areas of the four analytes to that of IS versus the concentration of the four analytes. Calibration curves were fitted via linear weighted (1/X ^ 2 ) least–squares regression. The intra–and inter–day precision and accuracy were estimated by analyzing QC samples at different concentrations on the same day and three consecutive validation days, respectively. The extraction recovery was evaluated by determining the peak area of analytes in QC samples compared with that in extracted matrix samples. The relative standard deviation of the extraction recovery of analytes at each level was retained at ≤20.0%. The following parameters of stability were assessed: short–term stability (24 h at room temperature), processed sample stability (24 h at 4°C), freeze–thaw stability (3 cycles), and auto–sampler stability (6 h at room temperature). QC samples of different concentrations were used for stability analysis.

[3] = PK study: plasma pharmacokinetics after oral administration of CA extract in normal and FD rats (UPLC-MS/MS); format: in vivo; details: Sprague-Dawley, rat, oral CA extract (0.10 g/mL solution, 10 mL/kg); for AUC(0-inf) / AUC(0-t) / CL/F / Cmax / half-life: n = 6; for Tmax: n = 6, read-out: Tmax; for Vd/F: n = 6, read-out: Vz/F
Description: For PK experiments, an appropriate amount of the CA extract was weighed to prepare a 0.10 g/mL solution using physiological saline. Briefly, 12 SD rats were randomly assigned to normal and FD groups and were orally administered the prepared CA sample (10 mL/kg body weight). For assessment, 0.3 mL of blood was collected into heparinized tubes via the caudal vein before dosing and at 2, 5, 10, 15, 20, 30, and 45 min, and 1, 2, 4, 8, 12, 24, and 48 h after administration. Blood samples were then immediately centrifuged at 4,500 rpm for 15 min, and the obtained plasma samples were stored at −20°C until determination.
The PK parameters were analyzed using the non–compartment analysis using the WinNonLin 8.2 software (Phoenix, United States). All the data were expressed as mean ± standard deviation (SD). The normal and FD groups were compared using independent samples t–test in SPSS 22.0. Results with p values < 0.05 were considered statistically significant.

[4] = high QC (nominal 1666.00 / 3172.53 / 569.17 / 206.21 ng·mL^-1)
[5] = low QC (nominal 52.06 / 49.57 / 8.89 / 1.61 ng·mL^-1)
[6] = medium QC (nominal 208.25 / 396.57 / 71.13 / 25.78 ng·mL^-1)

In the case of `COc1cc(C(=O)O)cc(OC)c1O` [Syringic acid], the “detection in the brain” value ([1]; rat brain) is reported as “not detected”, the “time after dosing at which eliminated in all tissues” value ([1]; rat tissues) is reported as 1 h and the “tissue with higher distribution” value ([1]; rats) is reported as “stomach”. For the same compound, the “Measured concentration, 4°C for 24 h” value [2, 4] was 185.91 ± 1.51 ng/mL, the “Measured concentration, Room temperature for 24 h” value [2, 4] was 196.89 ± 6.85 ng/mL and the “Measured concentration, Three freeze-thaw cycles” value [2, 4] was 198.43 ± 6.85 ng/mL. For the same compound, the “Measured concentration, 4°C for 24 h” value [2, 5] was 1.47 ± 0.10 ng/mL, the “Measured concentration, Three freeze-thaw cycles” value [2, 5] was 1.42 ± 0.18 ng/mL and the “Measured concentration, 4°C for 24 h” value [2, 6] was 22.75 ± 1.62 ng/mL. For the same compound, the “Measured concentration, Room temperature for 24 h” value [2, 6] was 23.14 ± 1.80 ng/mL, the “Measured concentration, Three freeze-thaw cycles” value [2, 6] was 23.32 ± 1.20 ng/mL and the AUC(0-inf) ([3]; FD group rats) was 1170 ± 357 ng·h/mL. For the same compound, the AUC(0-t) ([3]; FD group rats) was 498 ± 109 ng·h/mL, the CL/F ([3]; FD group rats) was 1.83 mL/min/kg and the Cmax ([3]; FD group rats) was 67.4 ± 3 ng/mL. For the same compound, the half-life ([3]; FD group rats) was 37.7 ± 12.6 h, the Tmax ([3]; FD group rats) was 0.25 ± 0.04 h and the Vd/F ([3]; FD group rats) was 5.49 ± 0.69 L/kg. For the same compound, the AUC(0-inf) ([3]; Normal group rats) was 1150 ± 153 ng·h/mL, the AUC(0-t) ([3]; Normal group rats) was 523 ± 54.3 ng·h/mL and the CL/F ([3]; Normal group rats) was 1.67 mL/min/kg. It also gave a Cmax ([3]; Normal group rats) of 72.2 ± 6.74 ng/mL, a half-life ([3]; Normal group rats) of 34.5 ± 6.73 h and a Tmax ([3]; Normal group rats) of 0.24 ± 0.03 h. For the same compound, the Vd/F ([3]; Normal group rats) was 5.07 ± 0.74 L/kg.
